Reference: patent publication US20260256741A1, “ANTICANCER MALEIMIDE DERIVATIVES FOR USE WITH IMMUNE CHECKPOINT BLOCKADE” (BROWN UNIVERSITY, priority 2022, published 2026)

Legend:
[1] = test system: NK-92 natural killer cells; test: Western blot analysis of NK-92 natural killer cells; format: cell-based, human; conditions: through the 72-hour endpoint
Method: Cells were plated in a 6-well plate and incubated overnight before the spent media was replaced with drugged media. Drug treatment lasted for indicated durations. Protein was extracted using radioimmunoprecipitation (RIPA) assay buffer (Cat #R0278, Sigma-Aldrich, St. Louis, MO) containing cOmplete™, Mini, EDTA-free Protease Inhibitor Cocktail (Cat #4693159001, Roche, Basel, Switzerland) from sub-confluent cells. Denaturing sample buffer was added, samples were boiled at 95 degrees for 10 minutes, and an equal amount of protein lysate was electrophoresed through NuPAGE™ 4 to 12%, Bis-Tris, 1.5 mm, Mini Protein Gels (Invitrogen, Waltham, MA) then transferred to PVDF membranes. The PVDF membrane was blocked with 5% non-fat milk (Sigma-Aldrich, St. Louis, MO) in 1×TTBS. Primary antibodies were incubated with the transferred PVDF membrane in blocking buffer at 4° C. overnight. Secondary antibodies used included Goat anti-Rabbit IgG (H+L) Secondary Antibody, HRP (Cat #31460, Invitrogen, Waltham, MA), and Goat anti-Mouse IgG (H+L) Secondary Antibody, HRP (Cat #31430, Invitrogen, Waltham, MA). Signal was detected using Pierce™ ECL Western Blotting Substrate (Cat #32106, Thermo Scientific, Waltham, MA, USA) and a Syngene Imaging System (RRID: SCR_015770).

[2] = test system: CD45+ immune cell segments of tumor biopsies; test: GeoMx Digital Spatial Profiling of patient tumor biopsies; format: in vivo, human; conditions: post- vs pre-treatment
Source text: An Agilent technologies hybridization oven was used for baking tissue onto slides (Agilent, Santa Clara, CA, USA). A NanoString GeoMx® Digital Spatial Profiler (DSP) instrument (NanoString, Seattle, WA, USA) was used to scan slides, identify regions of interest (ROIs), and collect photocleavable barcodes according to manufacturer instructions. A custom panel was designed to include the following proteins: Ms IgG1, Ms IgG2a, Rb IgG, GAPDH, Histone H3, S6, Beta-2-microglobulin, CD31, CD45, Ki-67, ARG1, CD11b, CD11c, CD14, CD163, CD39, CD40, CD68, HLA-DR, GZMB, CD20, CD3, CD34, CD4, CD56, CD66b, CD8, Foxp3, Fibronectin, 4-1BB, B7-H3, CTLA4, GITR, IDO1, LAG3, OX40L, STING, Tim-3, VISTA, Bcl-2, ER-α, EpCAM, Her2, MART1, NY-ESO-1, PR, PTEN, PanCk, SMA, CD127, CD25, CD27, CD44, CD45RO, CD80, ICOS, PD-1, PD-L1, and PD-L2. An Eppendorf MasterCycler Gradient Thermal Cycler was used to generate the Illumina sequencing libraries from the photocleaved tags. (Eppendorf, Hamburg, Germany). An Agilent Fragment Analyzer (RRID: SCR_019417) was used for library size distribution analysis with a high-sensitivity NGS Fragment Kit (Cat #DNF-474-0500, Agilent, Santa Clara, CA, USA). qPCR for quantification was run using an Illumina-compatible KAPA Library Quantification Kits (ROX Low) (cat #KK4873) on an Applied Biosystems ViiA 7 Real-Time qPCR/PCR Thermal Cycler System (Applied Biosystems, San Francisco, CA, USA) and was analyzed using QuantStudio software (RRID: SCR_018712). Sequencing was performed using a NextSeq 500/550 High Output Kit v2.5 (75 Cycles) kit (cat #20024906) on an Illumina Sequencing NextSeq 550 System ([RRID: SCR_016381], Illumina, San Diego, CA, USA). The initial annotated dataset went through quality control (QC) to check if housekeeper genes and background (isotype) control molecules were themselves correlated with the predictors of interest. Every ROT was tested for raw sequencing reads (segments with <1000 raw reads were removed), % sequencing saturation (defined as [1-deduplicated reads/aligned reads]%, segments below ~50% were not analyzed), and nuclei count per segment (>100 nuclei per segment is generally recommended). Both immunoglobulins (IgGs) and housekeeper genes were highly correlated with one another. Signal to noise (SNR) ratio was calculated using background probes and all probes were detected above the background in at least one ROI. Finally, data were normalized based on background IgG expression and all normalization factors were well distributed. Data analysis and visualization were generated using R ([RRID: SCR_001905], R Development Core Team, 2020). Archival tumor specimens and peripheral blood samples were collected from patients enrolled in the Phase I study of Elraglusib (9-ING-41), a small molecule selective glycogen synthase kinase-3 beta (GSK-3b) inhibitor, as monotherapy or combined with cytotoxic regimens in patients with relapsed or refractory hematologic malignancies or solid tumors (Clinicaltrials.gov NCT03678883) who received treatment at the Lifespan Cancer Institute (Providence, RI, USA). The study was conducted in accordance with the Declaration of Helsinki and the International Conference on Harmonization Good Clinical Practice guidelines. The study protocol was approved by the Institutional Review Board (IRB) of Rhode Island Hospital under protocol number 1324888-120. The patients also participated in a Lifespan Cancer Institute research protocol designed to investigate molecular and genetic features of tumors and mechanisms of resistance (Rhode Island Hospital IRB protocol number 449060-38). All patients provided written informed consent.

[3] = tumor-infiltrating CD45+ segments, p=0.012
[4] = tumor-infiltrating CD45+ segments, p=1.6E-3
[5] = tumor-infiltrating CD45+ segments, p=3.1E-5

Cn1cc(C2=C(c3coc4ccc(F)cc34)C(=O)NC2=O)c2cc3c(cc21)OCO3 [elraglusib, 3-(5-fluorobenzofuran-3-yl)-4-(5-methyl-5H-[1,3]dioxolo[4,5-f]indol-7-yl)-1H-pyrrole-2,5-dione] was tested, and the Mcl-1 protein expression [1] was “did not observe a significant decrease”, the CD40 protein expression ([2]; CD45+ regions, all samples, p=0.020) was “decreased protein expression” and the CD11c protein expression ([2]; CD45+ regions, all samples, p=0.022) was “decreased protein expression”. The PD-L2 protein expression ([2]; CD45+ regions, all samples, p=2.0E-9) was “decreased protein expression”, the VISTA protein expression ([2]; CD45+ regions, all samples, p=2.0E-24) was “decreased protein expression” and the PD-L1 protein expression ([2]; CD45+ regions, all samples, p=3.2E-13) was “decreased protein expression”. The CD68 protein expression ([2]; CD45+ regions, all samples, p=3.8E-4) was “decreased protein expression”, the IDO1 protein expression ([2]; CD45+ regions, all samples, p=4.8E-6) was “decreased protein expression” and the LAG3 protein expression ([2]; CD45+ regions, all samples, p=5.1E-4) was “decreased protein expression”. The CD80 protein expression ([2]; CD45+ regions, all samples, p=5.4E-6) was “decreased protein expression”, the PD-1 protein expression ([2]; CD45+ regions, all samples, p=5.6E-9) was “decreased protein expression” and the CD11b protein expression ([2]; CD45+ regions, all samples, p=6.7E-3) was “decreased protein expression”. The CD66b protein expression ([2]; CD45+ regions, all samples, p=7.5E-15) was “decreased protein expression”, the B7-H3 protein expression [2, 3] was “higher protein expression” and the CD127 protein expression [2, 3] was “higher protein expression”. The GITR protein expression ([2]; tumor-infiltrating CD45+ segments, p=0.021) was “lower protein expression”, the CD45RO protein expression ([2]; tumor-infiltrating CD45+ segments, p=1.1E-4) was “lower protein expression” and the PD-L1 protein expression ([2]; tumor-infiltrating CD45+ segments, p=1.1E-6) was “lower protein expression”. For the same compound, the CD66b protein expression ([2]; tumor-infiltrating CD45+ segments, p=1.4E-13) was “lower protein expression”, the PTEN protein expression ([2]; tumor-infiltrating CD45+ segments, p=1.5E-11) was “lower protein expression” and the OX40L protein expression [2, 4] was “higher protein expression”. The PD-1 protein expression [2, 4] was “lower protein expression”, the VISTA protein expression ([2]; tumor-infiltrating CD45+ segments, p=1.6E-14) was “lower protein expression” and the CD80 protein expression ([2]; tumor-infiltrating CD45+ segments, p=2.4E-3) was “lower protein expression”. The B2M protein expression ([2]; tumor-infiltrating CD45+ segments, p=2.5E-6) was “lower protein expression”, the Ki-67 protein expression ([2]; tumor-infiltrating CD45+ segments, p=2.7E-4) was “lower protein expression” and the CTLA4 protein expression [2, 5] was “higher protein expression”. The HLA-DR protein expression [2, 5] was “lower protein expression”, the CD44 protein expression ([2]; tumor-infiltrating CD45+ segments, p=3.1E-7) was “lower protein expression” and the CD34 protein expression ([2]; tumor-infiltrating CD45+ segments, p=3.3E-9) was “lower protein expression”. For the same compound, the CD68 protein expression ([2]; tumor-infiltrating CD45+ segments, p=5.8E-4) was “lower protein expression”, the IDO1 protein expression ([2]; tumor-infiltrating CD45+ segments, p=6.6E-4) was “lower protein expression” and the CD56 protein expression ([2]; tumor-infiltrating CD45+ segments, p=6.9E-3) was “lower protein expression”. For the same compound, the PD-L2 protein expression ([2]; tumor-infiltrating CD45+ segments, p=7.6E-4) was “lower protein expression”, the ARG1 protein expression ([2]; tumor-infiltrating CD45+ segments, p=7.6E-5) was “lower protein expression” and the CD11c protein expression ([2]; tumor-infiltrating CD45+ segments, p=9.5E-3) was “lower protein expression”.
